In ChEMBL document CHEMBL1201862, “PubChem BioAssay data set” (2004):
“And” between values parts separate entries of the source, which are not always exact repeats. Equal entries are not always repeated.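 Protocol summary: plate cells (96-well), add compound at 5 concentrations, incubate 48 h, interpolate endpoints linearly. Here, GI50 denotes the concentration required for 50% inhibition of growth.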 The source made the active and inactive calls. No stated cut-off is given here; in the data, active = GI50 up to about 1.1 µM and inactive = higher.

Assays:
Assay in all cases: NCI anticancer screen, dose series, 48 h
[1] = tested on: SNB-19
[2] = tested on: NCI-H23
[3] = tested on: RPMI-8226
[4] = tested on: HT-29
[5] = tested on: A549
[6] = tested on: K562
[7] = tested on: Malme-3M
[8] = tested on: SK-MEL-2
[9] = tested on: OVCAR-8
[10] = tested on: HOP-62
[11] = tested on: U-251
[12] = tested on: SW-620
[13] = tested on: NCI-H226
[14] = tested on: IGROV-1
[15] = tested on: HCC 2998
[16] = tested on: M14
[17] = tested on: HCT-116
[18] = tested on: HOP-92
[19] = tested on: NCI/ADR-RES

Compound	GI50 [1]	GI50 [2]	GI50 [3]	GI50 [4]	GI50 [5]	GI50 [6]	GI50 [7]	GI50 [8]	GI50 [9]	GI50 [10]	GI50 [11]	GI50 [12]	GI50 [13]	GI50 [14]	GI50 [15]	GI50 [16]	GI50 [17]	GI50 [18]	GI50 [19]
O=C(O[C@H]1CCN2C[C@H]3C[C@H](CN4C(=O)CCC[C@H]34)[C@@H]2C1)c1ccc(O)cc1	> 100 µM (inactive)	> 100 µM (inactive)	> 100 µM (inactive)	> 100 µM (inactive)	> 100 µM (inactive)	> 100 µM (inactive)	> 100 µM (inactive)	> 100 µM (inactive)	> 100 µM (inactive)	> 100 µM (inactive)	> 100 µM (inactive)	> 100 µM (inactive)	> 100 µM (inactive)	> 100 µM (inactive)	> 100 µM (inactive)	> 100 µM (inactive)	> 100 µM (inactive)	> 100 µM (inactive)	
CCOC(=O)c1cc2cc(C)cc(C(=O)c3ccc([N+](=O)[O-])cc3)c2[nH]1	> 100 µM (inactive)	> 100 µM (inactive)	> 100 µM (inactive)	> 100 µM (inactive)	> 100 µM (inactive)	> 100 µM (inactive)	> 100 µM (inactive)	> 100 µM (inactive)		33.4 µM (inactive)	26.6 µM (inactive)	> 100 µM (inactive)	> 100 µM (inactive)	> 100 µM (inactive)	> 100 µM (inactive)	> 100 µM (inactive)	> 100 µM (inactive)	93.8 µM (inactive)	
CC(=O)OCC1OC(SC2OC(COC(C)=O)C(OC(C)=O)C(OC(C)=O)C2OC(C)=O)C(OC(C)=O)C(OC(C)=O)C1OC(C)=O (stereo not drawn)	> 100 µM (inactive)	> 100 µM (inactive)	> 100 µM (inactive)	> 100 µM (inactive)	> 100 µM (inactive)	> 100 µM (inactive)	> 100 µM (inactive)		> 100 µM (inactive)	> 100 µM (inactive)	> 100 µM (inactive)	> 100 µM (inactive)	> 100 µM (inactive)	> 100 µM (inactive)	> 100 µM (inactive)		> 100 µM (inactive)		> 100 µM (inactive)
CC(C)(C)CNCCCNc1ccc(Cl)cc1	> 100 µM (inactive)	> 100 µM (inactive)	21.2 µM (inactive)	20.2 µM (inactive)	> 100 µM (inactive)	< 0.01 µM (active)	22 µM (inactive)	24 µM (inactive)	> 100 µM (inactive)	97.1 µM (inactive)	> 100 µM (inactive)	> 100 µM (inactive)	18.5 µM (inactive)	58.1 µM (inactive)		23 µM (inactive)	55.1 µM (inactive)	13.6 µM (inactive)	> 100 µM (inactive)
CCN1c2nc3ccccc3nc2N(CC)c2nc3ccccc3nc21	> 100 µM (inactive)	49.1 µM (inactive)	34.5 µM (inactive)	39.5 µM (inactive)	88.7 µM (inactive)	34 µM (inactive)	70.8 µM (inactive)	> 100 µM (inactive)	60.1 µM (inactive)		48 µM (inactive)	30.7 µM (inactive)	51.8 µM (inactive)	23.2 µM (inactive)	50.5 µM (inactive)	61.9 µM (inactive)	26.9 µM (inactive)		63.8 µM (inactive)
CCCCCCCCCCCCC(=O)NCC(=O)NC(Cc1ccccc1)C(=O)Oc1ccc([N+](=O)[O-])cc1 (stereo not drawn)	15.2 µM (inactive)	57.7 µM (inactive)		82.2 µM (inactive)	> 100 µM (inactive)			> 100 µM (inactive)	48.2 µM (inactive)	> 100 µM (inactive)		39.9 µM (inactive)	33.5 µM (inactive)	87.9 µM (inactive)	44.4 µM (inactive)	49.1 µM (inactive)	30.9 µM (inactive)		57.1 µM (inactive)
C/C(O[Si](C(C)C)(C(C)C)C(C)C)=C(\C)C(=O)N(C)c1ccccc1Cl	> 100 µM (inactive)	> 100 µM (inactive)	> 100 µM (inactive)	> 100 µM (inactive)	> 100 µM (inactive)		> 100 µM (inactive)		> 100 µM (inactive)	> 100 µM (inactive)	> 100 µM (inactive)	> 100 µM (inactive)	> 100 µM (inactive)	> 100 µM (inactive)		> 100 µM (inactive)	> 100 µM (inactive)	> 100 µM (inactive)	> 100 µM (inactive)
N#CCN1CCOCCOCCN(CC#N)CCOCCOCC1	> 100 µM (inactive)	> 100 µM (inactive)	> 100 µM (inactive)	> 100 µM (inactive)	> 100 µM (inactive)	> 100 µM (inactive)	> 100 µM (inactive)		> 100 µM (inactive)	> 100 µM (inactive)		> 100 µM (inactive)	> 100 µM (inactive)	> 100 µM (inactive)	> 100 µM (inactive)	> 100 µM (inactive)	> 100 µM (inactive)	> 100 µM (inactive)	
CC(=O)OCC(OC(C)=O)C(OC(C)=O)C(/C=N\Nc1nc2ccccc2c(=O)[nH]1)OC(C)=O (stereo not drawn)	> 100 µM (inactive)	> 100 µM (inactive)	91.8 µM (inactive)	26.2 µM (inactive) and 41.6 µM (inactive)	> 100 µM (inactive)	> 100 µM (inactive)		> 100 µM (inactive)	> 100 µM (inactive)	> 100 µM (inactive)	> 100 µM (inactive)	> 100 µM (inactive)	> 100 µM (inactive) and 89.9 µM (inactive)	26.1 µM (inactive) and 43.5 µM (inactive)		> 100 µM (inactive)	> 100 µM (inactive)	> 100 µM (inactive)	24.9 µM (inactive) and 34.5 µM (inactive)
CCOP(=O)(OCC)C(c1ccccc1)N(C(=O)NC(F)(F)F)c1cccc(F)c1 (stereo not drawn)	> 100 µM (inactive)	> 100 µM (inactive)	83.2 µM (inactive)	> 100 µM (inactive)	> 100 µM (inactive)	63.8 µM (inactive)	> 100 µM (inactive)		> 100 µM (inactive)	> 100 µM (inactive)	> 100 µM (inactive)	> 100 µM (inactive)	> 100 µM (inactive)	6.93 µM (inactive)	55.8 µM (inactive)	> 100 µM (inactive)	> 100 µM (inactive)		58.9 µM (inactive)
O=c1c(-c2ccc(O)cc2)coc2cc(OC3OC(CO)C(O)C(O)C3O)cc(O)c12 (stereo not drawn)	> 100 µM (inactive)	> 10 µM (inactive)	51.8 µM (inactive)	> 100 µM (inactive)	60.3 µM (inactive)	> 10 µM (inactive)	> 10 µM (inactive)	> 10 µM (inactive)	> 100 µM (inactive)	> 10 µM (inactive)	> 10 µM (inactive)	> 10 µM (inactive)	> 100 µM (inactive)	> 10 µM (inactive)	> 100 µM (inactive)	> 10 µM (inactive)	> 100 µM (inactive)		> 10 µM (inactive)
CCOC(=O)CN1C(=O)C(=O)N(c2ccc(OC)c3ccccc23)C1=O	> 100 µM (inactive)	> 100 µM (inactive)	> 100 µM (inactive)	> 100 µM (inactive)	> 100 µM (inactive)	> 100 µM (inactive)	> 100 µM (inactive)	> 100 µM (inactive)	> 100 µM (inactive)	68.5 µM (inactive)	> 100 µM (inactive)	> 100 µM (inactive)	45.1 µM (inactive)		> 100 µM (inactive)	> 100 µM (inactive)	> 100 µM (inactive)		> 100 µM (inactive)
O=C(Nc1cccc(F)c1)c1cc2ccc(O)cc2o/c1=N\c1cccc(F)c1	8.97 µM (inactive)	2.34 µM (inactive)	2.87 µM (inactive)	> 100 µM (inactive)	3.97 µM (inactive)	2.38 µM (inactive)	4.37 µM (inactive)	8.2 µM (inactive)	2.31 µM (inactive)	27.9 µM (inactive)	3.99 µM (inactive)	4.27 µM (inactive)		2.08 µM (inactive)	27.1 µM (inactive)	7.73 µM (inactive)	4.78 µM (inactive)		3.4 µM (inactive)
CCOC(=O)NN(C(=O)OCC)c1c(C)cc(C)cc1C	> 100 µM (inactive)	> 100 µM (inactive)	> 100 µM (inactive)	> 100 µM (inactive)	> 100 µM (inactive)	> 100 µM (inactive)	> 100 µM (inactive)	> 100 µM (inactive)	> 100 µM (inactive)		> 100 µM (inactive)	> 100 µM (inactive)	> 100 µM (inactive)	64.4 µM (inactive)	> 100 µM (inactive)	> 100 µM (inactive)	> 100 µM (inactive)		> 100 µM (inactive)
O=C(CN1CCOCC1)NC1=Nc2ncccc2C(=O)NN1	> 10 µM (inactive)	> 10 µM (inactive)	> 10 µM (inactive)	> 10 µM (inactive)	> 10 µM (inactive)	> 10 µM (inactive)	> 10 µM (inactive)	> 10 µM (inactive)	> 10 µM (inactive)	> 10 µM (inactive)	> 10 µM (inactive)	> 10 µM (inactive)	> 10 µM (inactive)	> 10 µM (inactive)		> 10 µM (inactive)	> 10 µM (inactive)	> 10 µM (inactive)	
c1nncn1C12C3C4C5C3C1C5C42 (stereo not drawn)	> 100 µM (inactive)	> 100 µM (inactive)	> 100 µM (inactive)	> 100 µM (inactive)	> 100 µM (inactive)	> 100 µM (inactive)		> 100 µM (inactive)	> 100 µM (inactive)	> 100 µM (inactive)	> 100 µM (inactive)	> 100 µM (inactive)	> 100 µM (inactive)	> 100 µM (inactive)	> 100 µM (inactive)		> 100 µM (inactive)		> 100 µM (inactive)
